One data set has as its system Antibody A (IgG1). In words: SEC-HPLC aggregation of Antibody A (IgG1) after UV-B exposure. The class given is physicochemical.
Data set [1] in a line: Color change of the antioxidant upon light. The data set is classed as physicochemical. The source says:
P-amino benzoic acid (PABA) has a relatively powerful antioxidant effect.

The conditions of data set [2]: PABA: doses as high as 12 grams per day; cited from earlier work.
For data set [3] the following is noted: cited from earlier work.
The subject of data set [4] is Antibody B binding to protein A. In words: Binding of Antibody B to protein A after UV-B exposure of the formulation. As to conditions: 20 mM additive; pH 6.90 phosphate buffer; 0-24 hours UV-B. How it is done:
For the examples below involving exposure to UVB radiation, each sample was exposed to UVB light (λ≈302 nm) for varying times, using a UVP 8W model UVLMS-38 lamp at 4° C. The formulations were then analyzed using size exclusion chromatography high pressure liquid chromatography (SEC-HPLC). Aggregation (measured via SEC-HPLC analysis) and binding (measured using CM5 gold sensor chips) were measured to determine the effect of the antioxidant on aggregation and bioactivity of the therapeutic protein.
The binding activity of therapeutic protein to a ligand (e.g. to an antibody or binding partner, or, in cases where the therapeutic was an antibody, binding activity to the specific target antigen or to protein A) was determined as follows. […] The therapeutic protein-binding ligand of interest was injected until the desired immobilization level was achieved (above 5000 response units). Three different therapeutic protein-binding ligands were measured—Antibody A's target antigen, Protein A, and D11 (an antibody that binds to erythropoietin). […] The remaining activated groups were blocked with 1.0 M ethanolamine-HCl, pH 8.5.
A standard curve was prepared by using native forms of the therapeutic protein of interest. Native forms of the therapeutic protein were diluted in HBS-EP buffer (pH 7.4) to concentrations between 1 and 5 μg/mL, and then injected on the column, prepared as described above to obtain a standard curve. At the end of each sample run, regeneration buffer was used to wash away any bound therapeutic protein in preparation for subsequent injections.
Various UV-stressed antibody formulations were also diluted in HBS-EP buffer (pH 7.4) to a concentration within the standard curve region, and injected to quantitate the loss of bioactivity to its respective ligand-binding partner.

For data set [5], the system named is Antibody A. In words: Discoloration (yellowing) of Antibody A formulations after UV-B exposure. The data set is classed as physicochemical. The settings on record: 10 mM additive alone; UV-B light 24 hours.
From the text: Discoloration can be assessed visually or by measurement of absorbance at a specific wavelength.
Proteins may also become yellow in color following exposure to UV light.
Pyridoxine is another water soluble B-vitamin (B6) which was studied as a possible antioxidant for preventing protein aggregation caused by UV-B exposure.
Another data set concerns EPO. As to conditions: 10 mM additive, 0.06% H2O2, 24 hours, room temperature.
Data set [6] relates to Antibody A. The settings on record: 400 mM proline; 1% H2O2, 2 weeks. How it is done:
Extreme conditions designed to greatly increase free radical generation include exposure to UVA and/or UVB light at 4° C. to 25° C. for 0.5 to 24 hours, or exposure to a 1% solution of hydrogen peroxide at 25° C. for 2 weeks, or exposure to 0.2 mM Fe-EDTA, 0.3% H2O2, and 1 mM ascorbate for 2 hours or longer at 37° C. Samples may alternatively be exposed to light providing an overall illumination of not less than 1.2 million lux hours and an integrated near UV energy of not less than 200 watt hours/square meter.

The values that follow come from patent US12440567B2, “Aqueous antibody formulation stabilized by antioxidants for parenteral administration” (AMGEN INC., priority 2007, dated 2025).

Method for Antibody A (IgG1): The SEC-HPLC conditions were as follows: a G3000 TOSOH SWXL column was used and the flowrate was set at 0.5 mL/min. […] For both IgG1 and IgG2, the mobile phase was 80 mM sodium phosphate, 300 mM sodium perchlorate, 10% isopropanol, pH 7.2, and each sample was run for 45 minutes.
For FIG. 5, the anti-streptavidin formulation was prepared having the following characteristics: 1 mg/mL anti-streptavidin mAb (IgG2), 10 mM sodium acetate, 5% sorbitol, and pH 5.00. For FIG. 6, the Antibody A formulation was prepared having the following characteristics: 1 mg/mL Antibody A (IgG1), 10 mM sodium acetate, 9% sucrose, and pH 5.20.
Method for EPO: An exemplary protocol for Met-54 oxidation and peroxide assay is as follows. 0.6% hydrogen peroxide is added to 20 mM sodium phosphate solution containing 0.336 m/mL erythropoietin (EPO). Following 24 hours incubation at room temperature, 1 μg of the enzyme catalase is added to quench the excess hydrogen peroxide. 10 μL of 1M Tris solution pH 8.0 is added to 90 μL of EPO solution followed by addition of 2 μL of a 1 mg/mL trypsin solution. Samples are incubated overnight at room temperature. Peptides are separated using reverse phase HPLC (RP-HPLC). Peptides are identified by mass spectrometry (LC-MS). % Met-54 oxidation is calculated using peak areas determined by integration of UV chromatogram from RP-HPLC

Take `Nc1ccc(C(=O)O)cc1` [PABA, P-amino benzoic acid]: in the data set on Antibody A (IgG1) (20 mM PABA, Antibody A 1 mg/mL pH 5.00, UV 1, 2, or 3 hours), the “aggregation of Antibody A (SEC-HPLC)” value is “able to significantly reduce the amount of aggregation”. Further, the “color change upon light” value in data set [1] is recorded as “changes to an orange-brown color upon light”. Besides, in data set [2], the toxicity in humans result is recorded as “without significant toxicity”.
As to `Cc1ncc(C[n+]2csc(CCO)c2C)c(N)n1` [Thiamine, thiamine], in the data set with Antibody A (IgG1) (thiamine as low as 5 mM, Antibody A 3 mg/mL, UV-B 4 hours), the “aggregation of Antibody A (SEC-HPLC)” value is reported as “able to significantly inhibit Antibody A aggregation”. For the same compound, in data set [3], the solubility entry is given as “more soluble than the cinnamic acids or the benzoic acid derivatives”. In data set [2], the toxicity in humans result is given as “no known toxicity”.
Take `CSCC[C@H](N)C(=O)O` [methionine]: in data set [4], the “binding of Antibody B to protein A after UV-B exposure” value was “not able to prevent this UV-B induced degradation”. Besides, the “yellowing of Antibody A formulation” value in the data set with Antibody A [5] is “significant yellowing”. In addition, the “amount of Met-54 oxidation” value in the data set on EPO was “able to reduce the amount of EPO oxidation”.
Take `O=C(O)[C@@H]1CCCN1` [proline]: in the data set on Antibody A (IgG1) (200 mM proline, Antibody A 1 mg/mL pH 5.00, UV 15 minutes), the “protection of Antibody A from UV-B induced degradation (aggregation)” value is recorded as “weak effect”. In addition, the “prevention of Antibody A aggregation caused by peroxide” value with Antibody A [6] is “stronger effect”.
